Columns and labels:
HBV = assay: HepAD38 anti-HBV assay: reduction of viral product accumulation (virion DNA by qPCR, HBsAg or HBeAg by ELISA); format: cell-based; conditions: Hepatitis B virus, 120 h, HepAD38 cells, harvest five days after compound addition, 50% reduction of viral product vs no drug controls
Experimental: Methods: HepAD38 cells are maintained as previously reported (Ladner et al, Antimicrob. Agents Chemother. 1997, […], 1715). Briefly, cells are passaged upon attaining confluency in DMEM/F12 media in the presence of 10% FBS, Penn/Strep, 250 μg/mL G418, and 1 μg/ml tetracycline. Novel compounds are screened by first washing cells three times with PBS to remove tetracycline, and plating in 96 well plates at 35,000 cells/well. Compounds dissolved in DMSO are then diluted 1:200 into wells containing cells. Five days after compound addition, material is harvested for analysis. For an extended 8 day analysis, cells are plated and treated as described above, but media and compound are refreshed on d2 and d5 post initial treatment.
On harvest day, virion DNA is obtained by lysing with Sidestep Lysis and Stabilization Buffer and then quantified via quantitative real time PCR. Commercially available ELISA kits are used to quantitate the viral proteins HBsAg (Alpco) or HbeAg (US Biological) by following the manufacturer's recommended protocol after diluting samples to match the linear range of their respective assays. Irrespective of readout, compound concentrations that reduce viral product accumulation in the cell lysates or supernatants by 50% relative to no drug controls (EC50) are reported; EC50 ranges are as follows: A<0.1 μM; B 0.1-0.4 μM; C>0.4 μM.

[1] = Compound toxicity, total ATP levels (ATPLite); format: cell-based; conditions: human, HepG2 cells; three days after compound addition; 50% reduction of total ATP vs no drug controls
Experimental: Compound toxicity is evaluated by seeding cells at 15,000 cells/well and treating with compound as described above.

Compound | EC50 (HBV; class symbols) [nM] | CC50 at 3 days [1] [nM] | EC50 (HBV; given as numeric bound) [nM]
C#CCN1CC2(CC3=C(c4ccn(C(F)F)n4)[C@H](c4ccc(F)cc4Cl)N=C(c4nccs4)N3C2)OC1=O (stereo partly shown) [Example 1] | > 400 |  | 
C=CCN1CC2(CC3=C(c4ccn(C(F)F)n4)[C@H](c4ccc(F)cc4Cl)N=C(c4nccs4)N3C2)OC1=O (stereo partly shown) [Example 2] | > 400 |  | 
O=C1OC2(CC3=C(c4ccn(C(F)F)n4)[C@H](c4ccc(F)cc4Cl)N=C(c4nccs4)N3C2)CN1Cc1ccccc1 (stereo partly shown) [Example 3] | > 400 |  | 
C=CCN1C[C@@]2(CC3=C(c4ccn(C(F)F)n4)[C@H](c4ccc(F)cc4Cl)N=C(c4nccs4)N3C2)NC1=O [Example 4] | < 100 |  | 
C=CCN1C[C@]2(CC3=C(c4ccn(C(F)F)n4)[C@H](c4ccc(F)cc4Cl)N=C(c4nccs4)N3C2)NC1=O [Example 5] | 100 to 400 |  | 
O=C1N[C@@]2(CO1)CC1=C(c3cnn(C(F)F)n3)[C@H](c3ccc(F)cc3Cl)N=C(c3nccs3)N1C2 [Example 6] | < 100 | > 25000 | 
O=C1N[C@@]2(CO1)CC1=C(c3ccn(C(F)F)n3)[C@H](c3ccc(Cl)c(F)c3)N=C(c3nccs3)N1C2 [Example 7] | < 100 | > 25000 | 
O=C1N[C@@]2(CO1)CC1=C(c3ccn(C(F)F)n3)[C@@H](c3ccc(Cl)c(F)c3)N=C(c3nccs3)N1C2 [Example 8] |  |  | > 100
O=C1N[C@@]2(CO1)CC1=C(c3cnn(C(F)F)c3)[C@H](c3ccc(Cl)c(F)c3)N=C(c3nccs3)N1C2 [Example 9] | < 100 |  | 
O=C1N[C@@]2(CO1)CC1=C(c3cnn(C(F)F)c3)[C@@H](c3ccc(Cl)c(F)c3)N=C(c3nccs3)N1C2 [Example 10] |  |  | > 100
COC(=O)C1=C2C[C@@]3(COC(=O)N3)CN2C(c2nccs2)=N[C@H]1c1ccc(Cl)c(F)c1 [Example 11] | < 100 |  | 
COC(=O)C1=C2C[C@@]3(COC(=O)N3)CN2C(c2nccs2)=N[C@@H]1c1ccc(Cl)c(F)c1 [Example 12] |  |  | > 100
O=C1N[C@]2(CO1)CC1=C(c3ccn(C(F)F)n3)[C@H](c3ccc(Cl)c(F)c3)N=C(c3nccs3)N1C2 [Example 13] | < 100 | > 25000 | 
O=C1N[C@]2(CO1)CC1=C(c3ccn(C(F)F)n3)[C@@H](c3ccc(Cl)c(F)c3)N=C(c3nccs3)N1C2 [Example 14] |  |  | > 100
O=C1N[C@@]2(CO1)CC1=C(c3ccn(C(F)F)n3)[C@H](c3ccc(F)c(F)c3)N=C(c3nccs3)N1C2 [Example 15] | < 100 | > 25000 | 
O=C1N[C@@]2(CO1)CC1=C(c3ccn(C(F)F)n3)[C@@H](c3ccc(F)c(F)c3)N=C(c3nccs3)N1C2 [Example 16] |  |  | > 100
O=C1N[C@@]2(CO1)CC1=C(c3ccn(C(F)F)n3)[C@H](c3ccc(Cl)c(F)c3)N=C(c3ccccn3)N1C2 [Example 17] |  |  | > 100
O=C1N[C@@]2(CO1)CC1=C(c3ccn(C(F)F)n3)[C@@H](c3ccc(Cl)c(F)c3)N=C(c3ccccn3)N1C2 [Example 18] |  |  | > 100

— patent publication US11236111B2, “Hepatitis B antiviral agents” (Enanta Pharmaceuticals, Inc., priority 2019, dated 2022)
